The values that follow come from article PMC7997369, “Assessment of the Multifunctional Behavior of Lupin Peptide P7 and Its Metabolite Using an Integrated Strategy” (Journal of Agricultural and Food Chemistry, 2020).

The assay has as its target angiotensin-converting enzyme (ACE) (Homo sapiens, UniProt P12821). As to the kind of experiment: Cellular ACE inhibitory assay in undifferentiated intestinal Caco-2 cells. Set-up: endogenous in cells; host or cells: Caco-2 cells (INSERM, Paris). The assay is classed as cell-based. The conditions noted are these: Caco-2 cells treated 24 h at 37 °C with P7 0.1–250 μM; ACE activity in cell lysates, fluorescent Abz substrate; mean ± sd of three independent experiments in triplicate. As for the experimental part:
HK-2 cells from the American Type Culture Collection (ATCC) were cultured using Dulbecco’s modified Eagle’s medium–F12 (DMEM–F12) containing 25 mM glucose, 4 mM stable L-glutamine, 100 units […] penicillin, and 100 μg […] streptomycin, supplemented with 10% heat-inactivated fetal bovine serum (FBS, Hyclone Laboratories, Logan, UT, U.S.A.). […]
For the experiments, HK-2 and Caco-2 cells were seeded on 96-well plates at a density of 5 × 10^4 cells/well for 24 h. […] Total proteins were quantified by the Bradford method, and 2 μL of the supernatant (the equivalent of 2 μg of total proteins) was added to 18 μL of ACE1 lysis buffer in each well in a black 96-well plate with a clear bottom. […] Then, 20 μL of diluted ACE1 substrate [o-aminobenzoyl peptide (Abz-based peptide) substrate, 4% of ACE1 substrate in the assay buffer] was added in each well, except the background well, and the fluorescence (excitation/emission of 330/430 nm) was measured in a kinetic mode for 10 min at 37 °C.

pIC50: −log10 of the molar value. No end group written: not given here.

Sequence of angiotensin-converting enzyme (ACE) (P12821 30-1306): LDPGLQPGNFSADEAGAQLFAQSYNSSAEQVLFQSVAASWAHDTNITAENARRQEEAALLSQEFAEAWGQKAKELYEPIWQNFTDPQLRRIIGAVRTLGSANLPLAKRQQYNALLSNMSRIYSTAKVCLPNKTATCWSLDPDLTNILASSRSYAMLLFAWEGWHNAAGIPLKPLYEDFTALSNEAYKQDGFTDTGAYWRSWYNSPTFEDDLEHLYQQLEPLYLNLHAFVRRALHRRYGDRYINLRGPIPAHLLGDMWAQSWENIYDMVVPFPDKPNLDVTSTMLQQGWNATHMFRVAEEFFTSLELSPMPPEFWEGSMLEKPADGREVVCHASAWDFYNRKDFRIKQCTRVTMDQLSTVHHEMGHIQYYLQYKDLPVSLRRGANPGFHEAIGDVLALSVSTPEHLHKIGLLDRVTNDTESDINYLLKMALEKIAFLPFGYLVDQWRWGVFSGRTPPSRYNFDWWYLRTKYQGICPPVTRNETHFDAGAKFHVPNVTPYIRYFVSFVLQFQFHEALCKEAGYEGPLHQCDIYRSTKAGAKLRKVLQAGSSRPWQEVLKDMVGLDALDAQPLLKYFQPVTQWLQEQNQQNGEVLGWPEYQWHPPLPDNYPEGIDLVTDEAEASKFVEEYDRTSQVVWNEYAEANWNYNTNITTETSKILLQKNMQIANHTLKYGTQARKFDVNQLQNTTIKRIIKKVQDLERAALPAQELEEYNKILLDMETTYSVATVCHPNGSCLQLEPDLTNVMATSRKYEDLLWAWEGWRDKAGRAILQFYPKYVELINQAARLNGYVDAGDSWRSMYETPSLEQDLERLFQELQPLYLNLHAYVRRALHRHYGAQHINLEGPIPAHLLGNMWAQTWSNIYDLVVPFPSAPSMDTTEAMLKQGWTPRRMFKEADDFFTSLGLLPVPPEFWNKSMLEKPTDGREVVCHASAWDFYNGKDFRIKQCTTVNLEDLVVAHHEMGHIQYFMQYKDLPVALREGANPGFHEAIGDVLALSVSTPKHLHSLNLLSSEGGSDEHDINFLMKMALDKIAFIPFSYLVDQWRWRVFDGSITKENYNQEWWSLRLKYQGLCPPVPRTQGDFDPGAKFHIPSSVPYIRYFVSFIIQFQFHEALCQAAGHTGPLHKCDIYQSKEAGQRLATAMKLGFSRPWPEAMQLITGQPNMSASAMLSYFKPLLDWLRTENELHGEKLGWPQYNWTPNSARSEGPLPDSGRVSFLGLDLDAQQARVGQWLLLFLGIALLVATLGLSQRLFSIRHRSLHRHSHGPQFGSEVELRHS

For the sequence LTFPGSAED [P7], the pIC50 (in general, the negative decadic logarithm of the IC50, by convention in mol/L) was 4.86.
